Measured values as given in US20250143299A1, “METHODS AND COMPOSITIONS FOR CONTROLLING PESTS IN VEGETABLES” (Globachem NV, priority 2022, published 2025).

Legend:
Pea [1] = assay: Example 5 phytotoxicity, chlorosis (PHYCHL) on pea; type: in vivo; parameters: scale not given here; details: appl. AB
Experimental: The trial was conducted on peas, variety Batuta, 4 replicates per plot. A water volume of 200 L water/ha was used for each application. Two applications were made, Application A was made at first infestation and Application B was made 14d later. Each plot at least 12 m^2.

Pea [2] = assay: Example 6 phytotoxicity, necrosis/burn (PHYNEC) on pea; type: in vivo; parameters: scale not given here; details: appl. AB
Source text: Trial conducted on peas, variety Navarro, 4 replicates per plot. Each plot was at least 12 m^2, a water volume of 200 L water per ha was used for the application.
Insects present at the time of application A: 106 aphids per 20 shoots. The stage of the crop at application A was BBCH 75-77, and at application B, (14 DAA) BBCH 79-81.

CCCCCCCCC(=O)O [PA, pelargonic acid]
5: Phytotoxicity - Chlorosis (PHYCHL) (Pea [1]; 1300 g/ha (2.0 L/ha), 3 DAA) | Phytotoxicity - Chlorosis (PHYCHL) (Pea [1]; 1300 g/ha (2.0 L/ha), Same day A)
0: Phytotoxicity - Chlorosis (PHYCHL) (Pea [1]; 585 g/ha (0.9 L/ha), 3 DAA) | Phytotoxicity - Chlorosis (PHYCHL) (Pea [1]; 585 g/ha (0.9 L/ha), 3 DAB) | Phytotoxicity - Chlorosis (PHYCHL) (Pea [1]; 585 g/ha (0.9 L/ha), 7 DAA) | Phytotoxicity - Chlorosis (PHYCHL) (Pea [1]; 585 g/ha (0.9 L/ha), 7 DAB) | Phytotoxicity - Chlorosis (PHYCHL) (Pea [1]; 585 g/ha (0.9 L/ha), 14 DAA) | Phytotoxicity - Chlorosis (PHYCHL) (Pea [1]; 585 g/ha (0.9 L/ha), 14 DAB) | Phytotoxicity - Chlorosis (PHYCHL) (Pea [1]; 585 g/ha (0.9 L/ha), Same day A) | Phytotoxicity - Chlorosis (PHYCHL) (Pea [1]; 585 g/ha (0.9 L/ha), Same day B) | Phytotoxicity - Chlorosis (PHYCHL) (Pea [1]; 975 g/ha (1.5 L/ha), 14 DAB) | Phytotoxicity - Chlorosis (PHYCHL) (Pea [1]; 975 g/ha (1.5 L/ha), Same day A) | Phytotoxicity - Chlorosis (PHYCHL) (Pea [1]; 1300 g/ha (2.0 L/ha), 14 DAB) | Phytotoxicity - Necrosis/burn (PHYNEC) (Pea [2]; 585 g/ha (0.9 L/ha), 7 DAA) | Phytotoxicity - Necrosis/burn (PHYNEC) (Pea [2]; 585 g/ha (0.9 L/ha), 14 DAA) | Phytotoxicity - Necrosis/burn (PHYNEC) (Pea [2]; 975 g/ha (1.5 L/ha), 7 DAA) | Phytotoxicity - Necrosis/burn (PHYNEC) (Pea [2]; 975 g/ha (1.5 L/ha), 14 DAA)
2: Phytotoxicity - Chlorosis (PHYCHL) (Pea [1]; 975 g/ha (1.5 L/ha), 3 DAA) | Phytotoxicity - Chlorosis (PHYCHL) (Pea [1]; 975 g/ha (1.5 L/ha), 3 DAB) | Phytotoxicity - Chlorosis (PHYCHL) (Pea [1]; 975 g/ha (1.5 L/ha), 7 DAA) | Phytotoxicity - Chlorosis (PHYCHL) (Pea [1]; 975 g/ha (1.5 L/ha), 7 DAB) | Phytotoxicity - Chlorosis (PHYCHL) (Pea [1]; 975 g/ha (1.5 L/ha), 14 DAA) | Phytotoxicity - Chlorosis (PHYCHL) (Pea [1]; 2600 g/ha (4.0 L/ha), 14 DAB)
23: Phytotoxicity - Chlorosis (PHYCHL) (Pea [1]; 2600 g/ha (4.0 L/ha), 3 DAB)
15: Phytotoxicity - Chlorosis (PHYCHL) (Pea [1]; 2600 g/ha (4.0 L/ha), 3 DAA) | Phytotoxicity - Chlorosis (PHYCHL) (Pea [1]; 2600 g/ha (4.0 L/ha), Same day A)
13: Phytotoxicity - Chlorosis (PHYCHL) (Pea [1]; 2600 g/ha (4.0 L/ha), 7 DAB)
6: Phytotoxicity - Chlorosis (PHYCHL) (Pea [1]; 1300 g/ha (2.0 L/ha), 3 DAB) | Phytotoxicity - Chlorosis (PHYCHL) (Pea [1]; 1300 g/ha (2.0 L/ha), 7 DAA) | Phytotoxicity - Chlorosis (PHYCHL) (Pea [1]; 1300 g/ha (2.0 L/ha), 7 DAB)
3: Phytotoxicity - Chlorosis (PHYCHL) (Pea [1]; 975 g/ha (1.5 L/ha), Same day B) | Phytotoxicity - Necrosis/burn (PHYNEC) (Pea [2]; 1300 g/ha (2.0 L/ha), 7 DAA) | Phytotoxicity - Necrosis/burn (PHYNEC) (Pea [2]; 1300 g/ha (2.0 L/ha), 14 DAA)
37.5: Phytotoxicity - Necrosis/burn (PHYNEC) (Pea [2]; 2600 g/ha (4.0 L/ha), 7 DAA) | Phytotoxicity - Necrosis/burn (PHYNEC) (Pea [2]; 2600 g/ha (4.0 L/ha), 14 DAA)
4: Phytotoxicity - Chlorosis (PHYCHL) (Pea [1]; 1300 g/ha (2.0 L/ha), 14 DAA) | Phytotoxicity - Chlorosis (PHYCHL) (Pea [1]; 1300 g/ha (2.0 L/ha), Same day B)
20: Phytotoxicity - Chlorosis (PHYCHL) (Pea [1]; 2600 g/ha (4.0 L/ha), 7 DAA) | Phytotoxicity - Chlorosis (PHYCHL) (Pea [1]; 2600 g/ha (4.0 L/ha), 14 DAA) | Phytotoxicity - Chlorosis (PHYCHL) (Pea [1]; 2600 g/ha (4.0 L/ha), Same day B)
